Measured values reported in ChEMBL document CHEMBL4619712, “Double-component diazeniumdiolate derivatives as anti-cancer agents” (Bioorg Med Chem, 2020).
Activity calls are given as the source filed them. The calls are words filed in the database; no cut-off is given here.

Key:
[1] = test system: CCRF-CEM; assay: Induction of apoptosis in human CCRF-CEM cells assessed as early apoptotic cells at 4 uM after 72 hrs by Annexin V/propidium iodide staining based flow cytometry (reference value: 0.87%); format: functional
[2] = molecular target: T1, MAP kinase p38 (Homo sapiens) (UniProt O15264+Q15759+Q16539+P53778); assay: Activation of p38 in human CCRF-CEM cells assessed as increase in phosphorylated p38 level at 8 uM incubated for 1 to 6 hrs by Western blot analysis; format: cell-based
[3] = test system: CCRF-CEM; assay: Cell cycle arrest in human CCRF-CEM cells assessed as accumulation of cells at sub G1 phase at 8 uM after 24 hrs by RNAse/propidium iodide staining based flow cytometry (reference value: 0.1%); format: functional
[4] = test system: CCRF-CEM; assay: Induction of apoptosis in human CCRF-CEM cells assessed as early apoptotic cells at 8 uM after 8 hrs by Annexin V/propidium iodide staining based flow cytometry (reference value: 0.87%); format: functional
[5] = test system: CCRF-CEM; assay: Induction of apoptosis in human CCRF-CEM cells assessed as necrotic cells at 8 uM after 8 hrs by Annexin V/propidium iodide staining based flow cytometry (reference value: 0.11%); format: functional
[6] = test system: CCRF-CEM; assay: Cell cycle arrest in human CCRF-CEM cells assessed as accumulation of cells at G1/G0 phase at 8 uM after 72 hrs by RNAse/propidium iodide staining based flow cytometry (reference value: 28.3%); format: functional
[7] = test system: CCRF-CEM; assay: (§1) Induction of apoptosis in human CCRF-CEM cells assessed as early apoptotic cells at 8 uM after 72 hrs by Annexin V/propidium iodide staining based flow cytometry (reference value: 0.87%); format: functional
[8] = test system: CCRF-CEM; assay: as §1; format: functional; remark: listed apart in the source
[9] = test system: CCRF-CEM; assay: Induction of apoptosis in human CCRF-CEM cells assessed as decrease in Bcl-2 level after 72 hrs by western blot analysis; format: functional, cell-based
[10] = molecular target: T1, MAP kinase p38 (Homo sapiens); assay: Activation of p38 in human CCRF-CEM cells assessed as increase in p38 level at 8 uM incubated for 1 to 6 hrs by Western blot analysis; format: cell-based
[11] = test system: CCRF-CEM; assay: Induction of apoptosis in human CCRF-CEM cells assessed as late apoptotic cells at 8 uM after 24 hrs by Annexin V/propidium iodide staining based flow cytometry (reference value: 8.60%); format: functional
[12] = test system: CCRF-CEM; assay: Induction of apoptosis in human CCRF-CEM cells assessed as late apoptotic cells at 8 uM after 8 hrs by Annexin V/propidium iodide staining based flow cytometry (reference value: 8.60%); format: functional
[13] = test system: CCRF-CEM; assay: Induction of apoptosis in human CCRF-CEM cells assessed as viable cells at 2 uM after 72 hrs by Annexin V/propidium iodide staining based flow cytometry (reference value: 90.4%); format: functional; conditions: read-out: Activity
[14] = test system: CCRF-CEM; assay: Induction of apoptosis in human CCRF-CEM cells assessed as early apoptotic cells at 2 uM after 72 hrs by Annexin V/propidium iodide staining based flow cytometry (reference value: 0.87%); format: functional
[15] = test system: CCRF-CEM; assay: Induction of apoptosis in human CCRF-CEM cells assessed as viable cells at 4 uM after 72 hrs by Annexin V/propidium iodide staining based flow cytometry (reference value: 90.4%); format: functional; conditions: read-out: Activity
[16] = test system: CCRF-CEM; assay: Cell cycle arrest in human CCRF-CEM cells assessed as accumulation of cells at sub G1 phase at 8 uM after 48 hrs by RNAse/propidium iodide staining based flow cytometry (reference value: 0.1%); format: functional
[17] = test system: CCRF-CEM; assay: (§2) Induction of apoptosis in human CCRF-CEM cells assessed as necrotic cells at 8 uM after 72 hrs by Annexin V/propidium iodide staining based flow cytometry (reference value: 0.11%); format: functional
[18] = test system: CCRF-CEM; assay: Induction of apoptosis in human CCRF-CEM cells assessed as viable cells at 8 uM after 48 hrs by Annexin V/propidium iodide staining based flow cytometry (reference value: 90.4%); format: functional; conditions: read-out: Activity
[19] = test system: CCRF-CEM; assay: Cell cycle arrest in human CCRF-CEM cells assessed as accumulation of cells at G1/G0 phase at 8 uM after 48 hrs by RNAse/propidium iodide staining based flow cytometry (reference value: 28.3%); format: functional
[20] = test system: CCRF-CEM; assay: Induction of apoptosis in human CCRF-CEM cells after 72 hrs by Annexin V-FITC/propidium iodide staining based flow cytometry; format: functional, cell-based
[21] = test system: CCRF-CEM; assay: Cell cycle arrest in human CCRF-CEM cells assessed as accumulation of cells at S phase at 8 uM after 72 hrs by RNAse/propidium iodide staining based flow cytometry (reference value: 46%); format: functional
[22] = test system: CCRF-CEM; assay: Induction of apoptosis in human CCRF-CEM cells assessed as viable cells at 16 uM after 72 hrs by Annexin V/propidium iodide staining based flow cytometry (reference value: 90.4%); format: functional; conditions: read-out: Activity
[23] = test system: CCRF-CEM; assay: (§3) Induction of apoptosis in human CCRF-CEM cells assessed as viable cells at 8 uM after 72 hrs by Annexin V/propidium iodide staining based flow cytometry (reference value: 90.4%); format: functional; conditions: read-out: Activity
[24] = test system: CCRF-CEM; assay: as §3; format: functional; conditions: read-out: Activity; remark: listed apart in the source
[25] = test system: CCRF-CEM; assay: Induction of apoptosis in human CCRF-CEM cells assessed as viable cells at 8 uM after 8 hrs by Annexin V/propidium iodide staining based flow cytometry (reference value: 90.4%); format: functional; conditions: read-out: Activity
[26] = test system: CCRF-CEM; assay: Induction of apoptosis in human CCRF-CEM cells assessed as necrotic cells at 16 uM after 72 hrs by Annexin V/propidium iodide staining based flow cytometry (reference value: 0.11%); format: functional
[27] = molecular target: T2, c-Jun N-terminal kinase, JNK (Homo sapiens) (UniProt P45983+P53779+P45984); assay: Activation of JNK in human CCRF-CEM cells assessed as increase in JNK level at 8 uM incubated for 1 to 6 hrs by Western blot analysis; format: cell-based
[28] = test system: CCRF-CEM; assay: Induction of apoptosis in human CCRF-CEM cells assessed as early apoptotic cells at 16 uM after 72 hrs by Annexin V/propidium iodide staining based flow cytometry (reference value: 0.87%); format: functional
[29] = test system: CCRF-CEM; assay: Induction of apoptosis in human CCRF-CEM cells assessed as late apoptotic cells at 8 uM after 48 hrs by Annexin V/propidium iodide staining based flow cytometry (reference value: 8.60%); format: functional
[30] = test system: CCRF-CEM; assay: Induction of apoptosis in human CCRF-CEM cells assessed as necrotic cells at 4 uM after 72 hrs by Annexin V/propidium iodide staining based flow cytometry (reference value: 0.11%); format: functional
[31] = test system: CCRF-CEM; assay: Cell cycle arrest in human CCRF-CEM cells assessed as accumulation of cells at G1/G0 phase at 8 uM after 24 hrs by RNAse/propidium iodide staining based flow cytometry (reference value: 28.3%); format: functional
[32] = test system: CCRF-CEM; assay: Cell cycle arrest in human CCRF-CEM cells assessed as accumulation of cells at S phase at 8 uM after 24 hrs by RNAse/propidium iodide staining based flow cytometry (reference value: 46%); format: functional
[33] = test system: CCRF-CEM; assay: (§4) Induction of apoptosis in human CCRF-CEM cells assessed as late apoptotic cells at 8 uM after 72 hrs by Annexin V/propidium iodide staining based flow cytometry (reference value: 8.60%); format: functional
[34] = test system: CCRF-CEM; assay: Cell cycle arrest in human CCRF-CEM cells assessed as accumulation of cells at S phase at 8 uM after 48 hrs by RNAse/propidium iodide staining based flow cytometry (reference value: 46%); format: functional
[35] = test system: CCRF-CEM; assay: Cell cycle arrest in human CCRF-CEM cells assessed as accumulation of cells at sub G1 phase at 8 uM after 72 hrs by RNAse/propidium iodide staining based flow cytometry (reference value: 0.1%); format: functional
[36] = test system: CCRF-CEM; assay: Induction of apoptosis in human CCRF-CEM cells assessed as late apoptotic cells at 4 uM after 72 hrs by Annexin V/propidium iodide staining based flow cytometry (reference value: 8.60%); format: functional
[37] = test system: CCRF-CEM; assay: Induction of apoptosis in human CCRF-CEM cells assessed as viable cells at 8 uM after 24 hrs by Annexin V/propidium iodide staining based flow cytometry (reference value: 90.4%); format: functional; conditions: read-out: Activity
[38] = test system: CCRF-CEM; assay: Cell cycle arrest in human CCRF-CEM cells assessed as accumulation of cells at G2/M phase at 8 uM after 48 hrs by RNAse/propidium iodide staining based flow cytometry (reference value: 25.6%); format: functional
[39] = test system: CCRF-CEM; assay: as §4; format: functional; remark: listed apart in the source
[40] = test system: CCRF-CEM; assay: Induction of apoptosis in human CCRF-CEM cells assessed as early apoptotic cells at 8 uM after 24 hrs by Annexin V/propidium iodide staining based flow cytometry (reference value: 0.87%); format: functional
[41] = test system: CCRF-CEM; assay: Induction of apoptosis in human CCRF-CEM cells assessed as late apoptotic cells at 2 uM after 72 hrs by Annexin V/propidium iodide staining based flow cytometry (reference value: 8.60%); format: functional
[42] = test system: CCRF-CEM; assay: Induction of apoptosis in human CCRF-CEM cells assessed as increase in Bax level after 72 hrs by western blot analysis; format: functional, cell-based
[43] = molecular target: T2, c-Jun N-terminal kinase, JNK (Homo sapiens); assay: Activation of JNK in human CCRF-CEM cells assessed as increase in phosphorylated JNK level at 8 uM incubated for 1 to 6 hrs by Western blot analysis; format: cell-based
[44] = test system: CCRF-CEM; assay: Induction of apoptosis in human CCRF-CEM cells assessed as necrotic cells at 2 uM after 72 hrs by Annexin V/propidium iodide staining based flow cytometry (reference value: 0.11%); format: functional
[45] = test system: CCRF-CEM; assay: Induction of apoptosis in human CCRF-CEM cells assessed as necrotic cells at 8 uM after 24 hrs by Annexin V/propidium iodide staining based flow cytometry (reference value: 0.11%); format: functional
[46] = test system: CCRF-CEM; assay: Induction of apoptosis in human CCRF-CEM cells assessed as decrease in Bcl-2 level at 8 uM by Western blot analysis; format: functional, cell-based; conditions: TDE = time-dependent effect
[47] = test system: CCRF-CEM; assay: Induction of apoptosis in human CCRF-CEM cells at 8 uM by Annexin V-FITC/propidium iodide staining based flow cytometry; format: functional, cell-based; conditions: TDE = time-dependent effect
[48] = test system: CCRF-CEM; assay: Induction of apoptosis in human CCRF-CEM cells assessed as early apoptotic cells at 8 uM after 48 hrs by Annexin V/propidium iodide staining based flow cytometry (reference value: 0.87%); format: functional
[49] = test system: CCRF-CEM; assay: Induction of apoptosis in human CCRF-CEM cells assessed as late apoptotic cells at 16 uM after 72 hrs by Annexin V/propidium iodide staining based flow cytometry (reference value: 8.60%); format: functional
[50] = test system: CCRF-CEM; assay: Cell cycle arrest in human CCRF-CEM cells assessed as accumulation of cells at G2/M phase at 8 uM after 24 hrs by RNAse/propidium iodide staining based flow cytometry (reference value: 25.6%); format: functional
[51] = test system: CCRF-CEM; assay: as §2; format: functional; remark: listed apart in the source
[52] = test system: CCRF-CEM; assay: Induction of apoptosis in human CCRF-CEM cells assessed as necrotic cells at 8 uM after 48 hrs by Annexin V/propidium iodide staining based flow cytometry (reference value: 0.11%); format: functional
[53] = test system: CCRF-CEM; assay: Induction of apoptosis in human CCRF-CEM cells assessed as increase in Bax level at 8 uM by Western blot analysis; format: functional, cell-based; conditions: TDE = time-dependent effect
[54] = test system: CCRF-CEM; assay: Cell cycle arrest in human CCRF-CEM cells assessed as accumulation of cells at G2/M phase at 8 uM after 72 hrs by RNAse/propidium iodide staining based flow cytometry (reference value: 25.6%); format: functional

O=[N+]([O-])c1ccc(O/N=[N+](\[O-])N2CCC(CN3CCN(/[N+]([O-])=N/Oc4ccc([N+](=O)[O-])cc4[N+](=O)[O-])CC3)CC2)c([N+](=O)[O-])c1
Activity [1]: 3.53% | Activity [2]: Active | Activity [3]: 3.5% | Activity [4]: 13.8% | Activity [5]: 0.38% | Activity [6]: 28.8% | Activity [7]: 8.93% | Activity [8]: 4.93% | Activity [9]: Dose-dependent effect | Activity [10]: Active | Activity [11]: 27.9% | Activity [12]: 24.3% | viability at 2 µM [13]: 87.5% | Activity [14]: 3% | viability at 4 µM [15]: 77.9% | Activity [16]: 8.4% | Activity [17]: 0.11% | viability at 8 µM [18]: 43.6% | Activity [19]: 28.9% | Activity [20]: Dose-dependent effect | Activity [21]: 0% | viability at 16 µM [22]: 0.63% | viability at 8 µM [23]: 34.8% | viability at 8 µM [24]: 42.5% | viability at 8 µM [25]: 61.5% | Activity [26]: 0.08% | Activity [27]: Active | Activity [28]: 3.64% | Activity [29]: 49.8% | Activity [30]: 0.028% | Activity [31]: 24.5% | Activity [32]: 26.3% | Activity [33]: 52.5% | Activity [34]: 8.2% | Activity [35]: 7.5% | Activity [36]: 10.6% | viability at 8 µM [37]: 65% | Activity [38]: 54.5% | Activity [39]: 56.2% | Activity [40]: 7.03% | Activity [41]: 9.53% | Activity [42]: Dose-dependent effect | Activity [43]: Active | Activity [44]: 0.015% | Activity [45]: 0.072% | Activity [46]: Tde | Activity [47]: Tde | Activity [48]: 6.51% | Activity [49]: 95.6% | Activity [50]: 45.7% | Activity [51]: 0.077% | Activity [52]: 0.058% | Activity [53]: Tde | Activity [54]: 63.7%
